Test results as given in US11053233B2, “Solid form of (S)-[2-chloro-4-fluoro-5-(7-morpholin-4-yl-quinazolin-4-yl)phenyl]-(6-methoxy-pyridazin-3-yl)-methanol” (Merck Patent GmbH, priority 2017, dated 2021).
Values after ≈ are worked out from the molar mass of the structure shown.

Key:
[1] = Long-term DS (drug substance) stability investigations; format: physicochemical; conditions: up to 40° C./75% relative humidity
[2] = Solubility measurements in biorelevant media (shake flask 24 h, HPLC); format: physicochemical
Description: Solubility measurements were carried out in accordance with the method described further below.
• Test media: • SGF (Simulated gastric fluid without pepsin) pH 1.2: • 2.0 g sodium chloride were placed in a 1 L volumetric flask and dissolved in around 500 mL water. 80 mL of 1 M hydrochloric acid solution were added and the volume made up to 1 L. • The resulting SGF solution contains: 34.2 mM sodium chloride • FaSSIF (Fasted State Simulated Intestinal Fluid) pH 6.5: • 0.224 g SIF powder (obtained from biorelevant.com) were dissolved in FaSSIF buffer in a 100 mL volumetric flask and made up to volume. The FaSSIF medium was allowed to equilibrate for 2 h at ambient room temperature and used within 48 h of preparation. FaSSIF buffer can be made up by dissolving 0.42 g NaOH pellets, 3.44 g of monobasic sodium phosphate anhydrous and 6.19 g sodium chloride in about 0.9 L of purified water, adjusting the pH to […] with 1 N NaOH or 1 N HCl and making up the volume to 1 L. • The resulting FaSSIF contains: 3 mM sodium taurocholate; 0.75 mM lecithin; 105.9 mM sodium chloride; 28.4 mM monobasic sodium phosphate and 8.7 mM sodium hydroxide. • FeSSIF (Fed State Simulated Intestinal Fluid) pH 5.0: • 1.12 g SIF powder (biorelevant.com) were dissolved in FeSSIF buffer in a 100 mL volumetric flask and made up to volume. It was used within 48 h of preparation. FeSSIF buffer can be made up by dissolving 4.04 g NaOH pellets, 8.65 g of glacial acetic acid and 11.87 g sodium chloride in about 0.9 L of purified water, adjusting the pH to […] with 1 N NaOH or 1 N HCl and making up the volume to 1 L. • The resulting FeSSIF contains: 15 mM sodium taurocholate; 3.75 mM lecithin; 203.2 mM sodium chloride; 101.0 mM sodium hydroxide and 144.1 mM acetic acid. • Solubility Measurements: • Excess amount of substance was weighed into Uniprep® Whatman vials, to which 1 mL of test medium were added. The suspension was shaken for 24 h at 450 rpm (rounds per minute) at 37° C. The pH was measured at 1 h, 6 h and 24 h and the vials were checked for undissolved compound. The pH of the medium was adjusted wherever necessary. After 24 h, the solutions were filtered through 0.2 μm PTFE membrane filter and the filtrates analysed using HPLC after suitable dilutions. • HPLC: • Apparatus: Agilent 1100 • Column: Chromolith® Performance RP-18e100-3 mm, Art. 1.52001 (h) • Wavelength: 282 nm • Injection volume: 5 μL • Column Oven: 37° C. • Auto sampler: 37° C. • Eluent A for HPLC: Formic Acid:Ultrapure water (1:999;v/v) • Eluent B for HPLC: Formic Acid+Acetonitrile (1:999;v/v) • HPLC-Gradient: […]

[3] = system: DNA-PK autophosphorylation in cancer cell lines
[4] = system: A549; conditions: 150 mg/kg oral plus IR 5 x 2 Gy
Description: (§1) The therapeutic relevance of DNA-PK inhibition by the drug substance as such was investigated in vivo in combination with ionizing radiation (IR), a clinically established DSB-inducing treatment. The drug substance was tested for activity in six xenograft mouse models of human cancer. The models were chosen from different cancer indications (colon, lung, head and neck, pancreatic), and histological subtypes (adeno, squamous, large cell). Ionizing radiation was administered using a fractionated schedule of 2 Gy per day administered over five consecutive days (total radiation dose=10 Gy). […] 10 min prior to each fraction of radiation (ONC397-1-2AZ, ONC397-1-3AZ, ONC397-1-4AZ, ONC397-1-5AZ, ONC397-1-8AZ).
(§2) The radiotherapy enhancing effect was quantified across the tested models by the time to reaching 400% initial volume for the 150 mg/kg study arms. The resulting Kaplan-Meier plots were compared by the log-rank test.

[5] = system: NCI-H460; conditions: 150 mg/kg oral plus IR 5 x 2 Gy
Description: as §1, §2

[6] = system: HCT116; conditions: 150 mg/kg oral plus IR 5 x 2 Gy
Description: as §1, §2

[7] = biological target: DNA-dependent protein kinase (DNA-PK) (Homo sapiens, UniProt P78527); assay: Inhibition of DNA-PK activity; format: biochemical
[8] = system: xenograft mouse models of human cancer (colon, lung, head and neck, pancreatic); assay: Combination with ionizing radiation in six xenograft mouse models of human cancer; format: in vivo; conditions: oral, 10 min prior to each fraction; IR 2 Gy per day over five days (10 Gy); all models
Description: as §1, §2

Structure (SMILES)	Chemical and physical stability [1]	Solubility compared with the anhydrous ordered crystalline compound ([2]; at pH 1.2)	solubility at 24 h ([2]; fasted state simulated intestinal fluid (FaSSIF), pH 6.5, thermodynamic from solid, FaSSIF, pH of medium 6.5, 37 °C) [µg/mL]	solubility at 24 h ([2]; fed state simulated intestinal fluid (FeSSIF), pH 5, thermodynamic from solid, FeSSIF, pH of medium 5.0, 37 °C) [µg/mL]	Solubility compared with the anhydrous ordered crystalline compound ([2]; general statement)	solubility at 24 h ([2]; simulated gastric fluid without pepsin (SGF), pH 1.2, simulated gastric fluid, thermodynamic from solid, SGF, pH of medium 1.2, 37 °C) [µg/mL]	Inhibition of DNA-PK autophosphorylation [3]	Enhancement ratio (time to reaching 400% initial volume) [4]	Enhancement ratio (time to reaching 400% initial volume) [5]	Enhancement ratio (time to reaching 400% initial volume) [6]	Inhibition of DNA-PK activity [7]	Enhancement of the radiation effect [8]
COc1ccc([C@@H](O)c2cc(-c3ncnc4cc(N5CCOCC5)ccc34)c(F)cc2Cl)nn1 [anhydrous disordered crystalline form, (S)-[2-chloro-4-fluoro-5-(7-morpholin-4-yl-quinazolin-4-yl)phenyl]-(6-methoxy-pyridazin-3-yl)-methanol]	high chemical and physical stability	more than double the solubility of the crystalline form	10 ± 1 (≈ 20.8 µM)	56 ± 2 (≈ 116 µM)	significantly better	2020 ± 67 (≈ 4200 µM)						
COc1ccc([C@@H](O)c2cc(-c3ncnc4cc(N5CCOCC5)ccc34)c(F)cc2Cl)nn1 [drug substance, (S)-[2-chloro-4-fluoro-5-(7-morpholin-4-yl-quinazolin-4-yl)phenyl]-(6-methoxy-pyridazin-3-yl)-methanol]							potent inhibition	1.5	2.6	1.5	potent and selective inhibitor	strong enhancement of the radiation effect
